Measurements taken from PMC7766155, “Improved Stability and Activity of a Marine Peptide-N6NH2 against Edwardsiella tarda and Its Preliminary Application in Fish” (Marine Drugs, 2020).
Read-outs that look alike come from different tables or passages of the source. Where a SMILES comes first, the peptide text is derived from it. Bridges are numbered along the chain shown (N, C = ends).

Columns and labels:
[1] = system: Escherichia coli, S. typhimurium, S. enteritidis and S. pullorum; assay: organism not typed; type: cell-based
Method: All tests were conducted in triplicate.

E. tarda cells = assay: TEM ultrastructure; type: cell-based, Edwardsiella tarda; conditions: 4 × MIC for 2 h, 1 × 10^8 CFU/mL
Method: Mid-log phase E. tarda cells (1 × 10^8 CFU/mL) were incubated with 4 × MIC N6 or N6NH2 for 2 h at 37 °C. The bacterial cells were then centrifuged, washed three times with 0.1 M PBS (pH 7.2) and fixed overnight at 4 °C with 2.5% glutaraldehyde. After washing twice with PBS, the cells were post-fixed with 1% osmium tetroxide (OsO4) for 2 h, dehydrated in a graded ethanol series (from 50% to 100%) for 15 min each time and dried by CO2. The cell samples were sputtered with gold-palladium and observed on a QUANTA200 electron microscopy (FEI, Philips, The Netherlands).
The bacterial cells were treated with peptides as described above, fixed with 2.5% glutaraldehyde at 4 °C overnight and post-fixed with 1% OsO4 for 1 h. After washing three times with PBS, the cells were dehydrated with a graded acetone series (50%, 70%, 85%, 95% and 100%, for 7 min each time) and immersed in mixtures of acetone and resin (3:1, 1:1 and 1:3, 40 min each time). The samples were infiltrated with a pure epoxy resin overnight, embedded in capsules containing embedding medium and polymerized at 45 °C for 3 h and at 65 °C for 24 h, respectively. Thin sections were cut using an ultramicrotome, stained with 1% uranyl acetate and examined by a JEM1400 (JEDL, Tokyo, Japan).

[2] = system: Staphylococcus aureus ATCC43300
E. tarda genomic DNA = assay: Gel migration (DNA binding) assay; design: species or system Edwardsiella tarda; conditions: 0.25 μg DNA, 10 min at room temperature, 0.7% agarose gel; mass ratios 0–10 tested
Method: The genomic DNA of E. tarda or O. niloticus was incubated for 10 min at room temperature with different concentrations of N6 and N6NH2 in binding buffer (5% glycerol, 10 mM Tris-HCl, pH 8.0, 20 mM KCl, 1 mM EDTA, 1 mM dithiothreitol and […] BSA). The mass ratios of peptides and DNA were 0, 0.5, 1, 2, 4, 6, 8, and 10, respectively. The migration of DNA was evaluated by electrophoresis on a 0.7% agarose gel.

[3] = broth microdilution, MHB, 1 × 10^5 CFU/mL, 37 °C 18–24 h, n = 3, some N6 data from ref 19

SMILES: CC(C)[C@@H]1NC(=O)CNC(=O)[C@H](CC(N)=O)NC(=O)[C@H](CCCNC(=N)N)NC(=O)[C@H](Cc2ccc(O)cc2)NC(=O)[C@H](C(C)C)NC(=O)[C@@H](NC(=O)[C@@H](NC(=O)[C@H](CC(N)=O)NC(=O)[C@H](Cc2c[nH]c3ccccc23)NC(=O)[C@H](C)NC(=O)[C@H](Cc2ccccc2)NC(=O)CN)C(C)C)CSSC[C@@H](C(=O)N[C@@H](Cc2c[nH]cn2)C(=O)N[C@@H](CCCNC(=N)N)C(=O)N[C@@H](CCCNC(=N)N)C(=O)N[C@@H](C)C(=O)N[C@@H](CC(N)=O)C(=O)O)NC(=O)[C@H](C(C)C)NC(=O)[C@H](CCCNC(=N)N)NC1=O [Peptide N6] (H-GFAWNVCVYRNGVRVCHRRAN-OH; disulfide 7-16; N-terminus assumed)
- MIC (S. aureus ATCC546; ATCC546): 1.62 µM
- MIC (S. aureus ATCC546; [3]): 4 µg/mL
- MIC (Aeromonas veronii): 2.58 µM
- MIC (Aeromonas veronii; [3]): 6.4 µg/mL
- MIC [1]: 0.25 to 4 µg/mL
- abnormal cells (TEM) (E. tarda cells): over 95%
- MIC ([2]; ATCC43300): 6.46 µM
- MIC [2, 3]: 16 µg/mL
- MIC (S. aureus ATCC25923; ATCC25923): 0.1 µM
- MIC (S. aureus ATCC25923; [3]): 0.25 µg/mL
- mass ratio of peptide and DNA at which migration of E. tarda genome DNA is inhibited (E. tarda genomic DNA): greater than 1
